Test results reported in PubChem BioAssay (NCI).
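Cultured in 96-well plates, cells were exposed to test compound for 48 hours across five concentrations. At the GI50, growth is halved. TGI: concentration producing complete growth inhibition.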

How the values were obtained:
Assay in all cases: growth of human tumour cells (NCI), 48 h
786-0 renal = system: 786-0 renal
A498 renal = system: A498 renal
A549 NSCLC = system: A549 NSCLC
ACHN renal = system: ACHN renal
BT-549 breast = system: BT-549 breast
CAKI-1 renal = system: CAKI-1 renal
CCRF-CEM leukemia = system: CCRF-CEM leukemia
COLO 205 colon = system: COLO 205 colon
DU-145 prostate = system: DU-145 prostate
EKVX NSCLC = system: EKVX NSCLC
HCC-2998 colon = system: HCC-2998 colon
HCT-116 colon = system: HCT-116 colon
HCT-15 colon = system: HCT-15 colon
HL-60(TB) leukemia = system: HL-60(TB) leukemia
HOP-62 NSCLC = system: HOP-62 NSCLC
HOP-92 NSCLC = system: HOP-92 NSCLC
HS 578T breast = system: HS 578T breast
HT29 colon = system: HT29 colon
IGROV1 ovarian = system: IGROV1 ovarian
K-562 leukemia = system: K-562 leukemia
KM12 colon = system: KM12 colon
LOX IMVI melanoma = system: LOX IMVI melanoma
M14 melanoma = system: M14 melanoma
MALME-3M melanoma = system: MALME-3M melanoma
MCF7 breast = system: MCF7 breast
MDA-MB-231 breast = system: MDA-MB-231 breast
MDA-MB-435 = system: MDA-MB-435
MDA-MB-468 breast = system: MDA-MB-468 breast
MOLT-4 leukemia = system: MOLT-4 leukemia
NCI-H226 lung = system: NCI-H226 lung
NCI-H23 lung = system: NCI-H23 lung
NCI-H460 lung = system: NCI-H460 lung
NCI-H522 lung = system: NCI-H522 lung
NCI/ADR-RES ovarian = system: NCI/ADR-RES ovarian
OVCAR-3 ovarian = system: OVCAR-3 ovarian
OVCAR-4 ovarian = system: OVCAR-4 ovarian
OVCAR-5 ovarian = system: OVCAR-5 ovarian
OVCAR-8 ovarian = system: OVCAR-8 ovarian
PC-3 prostate = system: PC-3 prostate
RPMI-8226 leukemia = system: RPMI-8226 leukemia
RXF 393 renal = system: RXF 393 renal
SF-268 CNS = system: SF-268 CNS
SF-295 CNS = system: SF-295 CNS
SF-539 CNS = system: SF-539 CNS
SK-MEL-2 melanoma = system: SK-MEL-2 melanoma
SK-MEL-28 melanoma = system: SK-MEL-28 melanoma
SK-MEL-5 melanoma = system: SK-MEL-5 melanoma
SK-OV-3 ovarian = system: SK-OV-3 ovarian
SN12C renal = system: SN12C renal
SNB-19 CNS = system: SNB-19 CNS
SNB-75 CNS = system: SNB-75 CNS
SR leukemia = system: SR leukemia
SW-620 colon = system: SW-620 colon
T-47D breast = system: T-47D breast
TK-10 renal = system: TK-10 renal
U251 CNS = system: U251 CNS
UACC-257 melanoma = system: UACC-257 melanoma
UACC-62 melanoma = system: UACC-62 melanoma
UO-31 renal = system: UO-31 renal

O=C(/C=C/Nc1ccc(Cl)cc1)c1ccc2c(c1)Nc1ccccc1S2
GI50 (786-0 renal): 11 µM
TGI (786-0 renal): 23.3 µM
GI50 (A498 renal): 18.4 µM
TGI (A498 renal): 42.5 µM
GI50 (A549 NSCLC): 6.43 µM
TGI (A549 NSCLC): 23.9 µM
GI50 (ACHN renal): 11 µM
TGI (ACHN renal): 27.8 µM
GI50 (BT-549 breast): 9.67 µM
TGI (BT-549 breast): 33.8 µM
GI50 (CAKI-1 renal): 10.1 µM
TGI (CAKI-1 renal): 24.6 µM
GI50 (CCRF-CEM leukemia): 16.9 µM
TGI (CCRF-CEM leukemia): 69.2 µM
GI50 (COLO 205 colon): 11.9 µM
TGI (COLO 205 colon): 28.6 µM
GI50 (DU-145 prostate): 8.43 µM
TGI (DU-145 prostate): 27.7 µM
GI50 (EKVX NSCLC): 14.6 µM
TGI (EKVX NSCLC): 36.8 µM
GI50 (HCC-2998 colon): 13.2 µM
TGI (HCC-2998 colon): 36.8 µM
GI50 (HCT-116 colon): 10.3 µM
TGI (HCT-116 colon): 29.9 µM
GI50 (HCT-15 colon): 14.9 µM
TGI (HCT-15 colon): > 100 µM
GI50 (HL-60(TB) leukemia): 69.8 µM
TGI (HL-60(TB) leukemia): > 100 µM
GI50 (HOP-62 NSCLC): 4.15 µM
TGI (HOP-62 NSCLC): 17.1 µM
GI50 (HOP-92 NSCLC): 12.6 µM
TGI (HOP-92 NSCLC): 29.9 µM
GI50 (HS 578T breast): 3.42 µM
TGI (HS 578T breast): 19 µM
GI50 (HT29 colon): 13.1 µM
TGI (HT29 colon): 32 µM
GI50 (IGROV1 ovarian): 13.2 µM
TGI (IGROV1 ovarian): 34.6 µM
GI50 (K-562 leukemia): 18.5 µM
TGI (K-562 leukemia): > 100 µM
GI50 (KM12 colon): 14.6 µM
TGI (KM12 colon): 55.2 µM
GI50 (LOX IMVI melanoma): 10.1 µM
TGI (LOX IMVI melanoma): 23.7 µM
GI50 (M14 melanoma): 14.6 µM
TGI (M14 melanoma): 40.2 µM
GI50 (MALME-3M melanoma): 11.4 µM
TGI (MALME-3M melanoma): 24.7 µM
GI50 (MCF7 breast): 6.64 µM
TGI (MCF7 breast): 23.9 µM
GI50 (MDA-MB-231 breast): 13.3 µM
TGI (MDA-MB-231 breast): 27.9 µM
GI50 (MDA-MB-435): 11.3 µM
TGI (MDA-MB-435): 39.4 µM
GI50 (MDA-MB-468 breast): 3.44 µM
TGI (MDA-MB-468 breast): 14.1 µM
GI50 (MOLT-4 leukemia): 17.6 µM
TGI (MOLT-4 leukemia): > 100 µM
GI50 (NCI-H226 lung): 11.6 µM
TGI (NCI-H226 lung): 37 µM
GI50 (NCI-H23 lung): 5.34 µM
TGI (NCI-H23 lung): 20.4 µM
GI50 (NCI-H460 lung): 3.77 µM
TGI (NCI-H460 lung): 14.7 µM
GI50 (NCI-H522 lung): 5.1 µM
TGI (NCI-H522 lung): 23.9 µM
GI50 (NCI/ADR-RES ovarian): 5.71 µM
TGI (NCI/ADR-RES ovarian): 20.1 µM
GI50 (OVCAR-3 ovarian): 11.4 µM
TGI (OVCAR-3 ovarian): 30.5 µM
GI50 (OVCAR-4 ovarian): 2.84 µM
TGI (OVCAR-4 ovarian): 10.4 µM
GI50 (OVCAR-5 ovarian): 15.9 µM
TGI (OVCAR-5 ovarian): 68.2 µM
GI50 (OVCAR-8 ovarian): 4.38 µM
TGI (OVCAR-8 ovarian): 17.8 µM
GI50 (PC-3 prostate): 7.55 µM
TGI (PC-3 prostate): 25.1 µM
GI50 (RPMI-8226 leukemia): 17.7 µM
TGI (RPMI-8226 leukemia): > 100 µM
GI50 (RXF 393 renal): 14.4 µM
TGI (RXF 393 renal): 30.5 µM
GI50 (SF-268 CNS): 6.05 µM
TGI (SF-268 CNS): 25.1 µM
GI50 (SF-295 CNS): 4.19 µM
TGI (SF-295 CNS): 17.1 µM
GI50 (SF-539 CNS): 8.84 µM
TGI (SF-539 CNS): 21.5 µM
GI50 (SK-MEL-2 melanoma): 13.6 µM
TGI (SK-MEL-2 melanoma): 32.8 µM
GI50 (SK-MEL-28 melanoma): 24 µM
TGI (SK-MEL-28 melanoma): 79.1 µM
GI50 (SK-MEL-5 melanoma): 12.4 µM
TGI (SK-MEL-5 melanoma): 28.4 µM
GI50 (SK-OV-3 ovarian): 12.9 µM
TGI (SK-OV-3 ovarian): 29.5 µM
GI50 (SN12C renal): 13.7 µM
TGI (SN12C renal): 66.5 µM
GI50 (SNB-19 CNS): 12.2 µM
TGI (SNB-19 CNS): 29.3 µM
GI50 (SNB-75 CNS): 1.96 µM
TGI (SNB-75 CNS): 6.85 µM
GI50 (SR leukemia): 21.2 µM
TGI (SR leukemia): > 100 µM
GI50 (SW-620 colon): 10.2 µM
TGI (SW-620 colon): 24.7 µM
GI50 (T-47D breast): 12.9 µM
TGI (T-47D breast): 56.4 µM
GI50 (TK-10 renal): 13.3 µM
TGI (TK-10 renal): 28.8 µM
GI50 (U251 CNS): 6.88 µM
TGI (U251 CNS): 21.3 µM
GI50 (UACC-257 melanoma): 18.7 µM
TGI (UACC-257 melanoma): 59.9 µM
GI50 (UACC-62 melanoma): 10.2 µM
TGI (UACC-62 melanoma): 25.7 µM
GI50 (UO-31 renal): 16.9 µM
TGI (UO-31 renal): 34.3 µM
